{
  "source": "the Deep4Chem optical property database",
  "assay": "solvent given as SMILES",
  "note": "Values joined by “and” are separate entries in the source; they are usually repeats but may differ in a detail not shown here. Equal values may be shown once.",
  "data": [
    {"smiles": "c1ccc2c(c1)CCc1ccccc1N2c1c2ccccc2cc2ccccc12", "values": [
      {"measurement": "fluorescence lifetime", "setting": "in Cc1ccccc1", "value": 41, "unit": "ns"}
    ]},
    {"smiles": "COc1cc2cc(-c3ccc(C(=O)OCOC(C)=O)cc3C(=O)OCOC(C)=O)oc2cc1N1CCOCCOCCN(c2cc3oc(-c4ccc(C(=O)OCOC(C)=O)cc4C(=O)OCOC(C)=O)cc3cc2OC)CCOCCOCC1", "values": [
      {"measurement": "fluorescence lifetime", "setting": "in O", "value": 0.52, "unit": "ns"}
    ]},
    {"smiles": "CCN(CC)c1ccc2cc(-c3nc4c5cccc6ccc7cccc(c7c65)c4n3-c3ccc(C(C)(C)C)cc3)c(=O)oc2c1", "values": [
      {"measurement": "fluorescence lifetime", "setting": "in ClCCl", "value": 11.4, "unit": "ns"}
    ]},
    {"smiles": "CN(C)c1ccc2nc(-c3ccc(C(=O)OC[C@H](NC(=O)OC(C)(C)C)C(=O)OCc4ccccc4)cc3)sc2c1", "values": [
      {"measurement": "fluorescence lifetime", "setting": "in C1CCCCC1", "value": 2.4, "unit": "ns"}
    ]},
    {"smiles": "c1ccc([B-]2(c3ccccc3)Oc3ccc4ccccc4c3-c3c4ccccc4cc[n+]32)cc1", "values": [
      {"measurement": "fluorescence lifetime", "setting": "in Cc1ccccc1", "value": 9.47, "unit": "ns"}
    ]},
    {"smiles": "Cn1nc(-c2ccccc2)c2n[nH]nc2c1=O", "values": [
      {"measurement": "fluorescence lifetime", "setting": "in CC#N", "value": 2, "unit": "ns"},
      {"measurement": "fluorescence lifetime", "setting": "in CCO", "value": 1.9, "unit": "ns"},
      {"measurement": "fluorescence lifetime", "setting": "in Cc1ccccc1", "value": 1.2, "unit": "ns"}
    ]},
    {"smiles": "CCCCC1=Cc2c3ccc4cccc5ccc(c6cc(-c7ccccc7)n(c26)P1(=O)c1ccccc1)c3c45", "note": "(stereo not drawn)", "values": [
      {"measurement": "fluorescence lifetime", "setting": "in C1CCCCC1", "value": 1.9, "unit": "ns"},
      {"measurement": "fluorescence lifetime", "setting": "in C1CCOC1", "value": 1.7, "unit": "ns"},
      {"measurement": "fluorescence lifetime", "setting": "in C1COCCO1", "value": 1.8, "unit": "ns"},
      {"measurement": "fluorescence lifetime", "setting": "in CC#N", "value": 1.8, "unit": "ns"},
      {"measurement": "fluorescence lifetime", "setting": "in CC(C)=O", "value": 1.8, "unit": "ns"},
      {"measurement": "fluorescence lifetime", "setting": "in CO", "value": 1.7, "unit": "ns"},
      {"measurement": "fluorescence lifetime", "setting": "in Cc1ccccc1", "value": 1.7, "unit": "ns"},
      {"measurement": "fluorescence lifetime", "setting": "in ClC(Cl)Cl", "value": 1.6, "unit": "ns"},
      {"measurement": "fluorescence lifetime", "setting": "in ClCCl", "value": 1.6, "unit": "ns"}
    ]},
    {"smiles": "[O-][n+]1c(/C=C/c2ccccc2)nc(N2CCOCC2)c2c1CCCC2", "values": [
      {"measurement": "fluorescence lifetime", "setting": "in ClCCl", "value": 9.2, "unit": "ns"}
    ]},
    {"smiles": "O=C1NC(=O)c2ccc(N3CCCCC3)c3cccc1c23", "values": [
      {"measurement": "fluorescence lifetime", "setting": "in C1CCOC1", "value": 7.02, "unit": "ns"},
      {"measurement": "fluorescence lifetime", "setting": "in ClC(Cl)Cl", "value": 8.86, "unit": "ns"},
      {"measurement": "fluorescence lifetime", "setting": "in ClCCl", "value": 7.02, "unit": "ns"}
    ]},
    {"smiles": "O=C1NC(=O)c2ccc(N3CCOCC3)c3cccc1c23", "values": [
      {"measurement": "fluorescence lifetime", "setting": "in C1CCOC1", "value": 8.38, "unit": "ns"},
      {"measurement": "fluorescence lifetime", "setting": "in ClC(Cl)Cl", "value": 8.65, "unit": "ns"},
      {"measurement": "fluorescence lifetime", "setting": "in ClCCl", "value": 8.38, "unit": "ns"}
    ]},
    {"smiles": "Cc1ccc(C2=Cc3c4ccccc4c4ccccc4[n+]3[B-](F)(F)O2)cc1", "values": [
      {"measurement": "fluorescence lifetime", "setting": "in ClC(Cl)Cl", "value": 0.706, "unit": "ns"}
    ]},
    {"smiles": "C(#Cc1ccc(C#Cc2ccc(C#Cc3ccccc3)cc2)cc1)c1ccccc1", "values": [
      {"measurement": "fluorescence lifetime", "setting": "in ClC(Cl)Cl", "value": 1.7, "unit": "ns"}
    ]},
    {"smiles": "CCCCOC(=O)c1cc(Cl)c2c3c(Cl)cc4c5c(cc(Cl)c(c6c(Cl)cc(C(=O)OCCCC)c1c26)c53)C(=O)N(c1c(C(C)C)cccc1C(C)C)C4=O", "values": [
      {"measurement": "fluorescence lifetime", "setting": "in Cc1ccccc1", "value": 4.86, "unit": "ns"}
    ]},
    {"smiles": "CC(C)(C)c1ccc2c(c1)c1cc(C(C)(C)C)ccc1n2-c1ccc(C#Cc2ccc(C#Cc3ccc(C=C(C#N)C#N)cc3)cc2)cc1", "values": [
      {"measurement": "fluorescence lifetime", "setting": "in ClCCl", "value": 3.7, "unit": "ns"}
    ]},
    {"smiles": "CC(C)c1cc(C(C)C)c(-c2nnc(-c3ccc(-n4c5ccccc5c5ccccc54)cc3)o2)c(C(C)C)c1", "values": [
      {"measurement": "fluorescence lifetime", "setting": "in CCO", "value": 2.19, "unit": "ns"}
    ]},
    {"smiles": "Cc1cc2nc3c(=O)n(C)c(=O)nc-3n(C)c2cc1C", "values": [
      {"measurement": "fluorescence lifetime", "setting": "in CC#N", "value": "7.1 ns and 6.9 ns"}
    ]},
    {"smiles": "Nc1ccc2c(c1)Cc1ccccc1-2", "values": [
      {"measurement": "fluorescence lifetime", "setting": "in C1CCCCC1", "value": 5.3, "unit": "ns"},
      {"measurement": "fluorescence lifetime", "setting": "in CC#N", "value": 3.2, "unit": "ns"},
      {"measurement": "fluorescence lifetime", "setting": "in CO", "value": 4.5, "unit": "ns"},
      {"measurement": "fluorescence lifetime", "setting": "in O", "value": 2.1, "unit": "ns"}
    ]},
    {"smiles": "c1ccc(-c2cc3cc4cccc5c(-c6ccccc6)cc6cc7cccc2c7c3c6c45)cc1", "values": [
      {"measurement": "fluorescence lifetime", "setting": "in ClCCl", "value": 4.21, "unit": "ns"}
    ]},
    {"smiles": "COc1cc2c(cc1-c1ccc(C(F)(F)F)cc1)Cc1c3c(c4c(c1-2)-c1cc(OC)c(-c2ccc(C(F)(F)F)cc2)cc1C4)C(=O)N(CCC(C)C)C3=O", "values": [
      {"measurement": "fluorescence lifetime", "setting": "in C1CCOC1", "value": 2.43, "unit": "ns"}
    ]},
    {"smiles": "CCn1c(=O)nc2n(C)c3cc(C)ccc3nc-2c1=O", "values": [
      {"measurement": "fluorescence lifetime", "setting": "in CC#N", "value": 7, "unit": "ns"},
      {"measurement": "fluorescence lifetime", "setting": "in CO", "value": 6.3, "unit": "ns"},
      {"measurement": "fluorescence lifetime", "setting": "in ClCCCl", "value": 6.5, "unit": "ns"}
    ]},
    {"smiles": "O=c1oc2ccc3ccccc3c2nc1-c1ccccc1", "values": [
      {"measurement": "fluorescence lifetime", "setting": "in c1ccccc1", "value": "2.2 ns and 2.6 ns"}
    ]},
    {"smiles": "COc1ccc(C2=c3sc(-c4ccc(OC)cc4)cc3=[N+]3C2=Nc2c(-c4ccc(OC)cc4)c4sc(-c5ccc(OC)cc5)cc4n2[B-]3(F)F)cc1", "values": [
      {"measurement": "fluorescence lifetime", "setting": "in ClC(Cl)Cl", "value": 1.69, "unit": "ns"}
    ]},
    {"smiles": "CCCCCCCCCCCCOc1cc2cc(N(C)C)ccc2cc1C=C(C#N)C#N", "values": [
      {"measurement": "fluorescence lifetime", "setting": "in CS(C)=O", "value": 2.2, "unit": "ns"}
    ]},
    {"smiles": "c1ccc2c(c1)cc(-c1cc(-c3nccs3)nc(-c3nccs3)c1)c1ccccc12", "values": [
      {"measurement": "fluorescence lifetime", "setting": "in CC#N", "value": 1.94, "unit": "ns"},
      {"measurement": "fluorescence lifetime", "setting": "in CCCCCC", "value": 5, "unit": "ns"},
      {"measurement": "fluorescence lifetime", "setting": "in CO", "value": 1.79, "unit": "ns"},
      {"measurement": "fluorescence lifetime", "setting": "in ClC(Cl)Cl", "value": 2.54, "unit": "ns"}
    ]},
    {"smiles": "CCC1(CC)c2ccccc2-c2c1c1c(c3c2C(CC)(CC)c2cc(/C=C/c4cccs4)ccc2-3)C(CC)(CC)c2ccccc2-1", "values": [
      {"measurement": "fluorescence lifetime", "setting": "in C1CCOC1", "value": 1.5, "unit": "ns"}
    ]},
    {"smiles": "c1cc2c([nH]c3c4[nH]c5sccc5c4c4nsnc4c23)s1", "values": [
      {"measurement": "fluorescence lifetime", "setting": "in C1CCOC1", "value": 16.2, "unit": "ns"},
      {"measurement": "fluorescence lifetime", "setting": "in CCOC(C)=O", "value": 16.5, "unit": "ns"},
      {"measurement": "fluorescence lifetime", "setting": "in CN(C)C=O", "value": 16, "unit": "ns"},
      {"measurement": "fluorescence lifetime", "setting": "in Cc1ccccc1", "value": 13.8, "unit": "ns"},
      {"measurement": "fluorescence lifetime", "setting": "in ClCCl", "value": 13.2, "unit": "ns"}
    ]},
    {"smiles": "N#Cc1cc(C#Cc2c(F)c(F)nc(F)c2F)c(C#Cc2c(F)c(F)nc(F)c2F)cc1C#N", "values": [
      {"measurement": "fluorescence lifetime", "setting": "in CC#N", "value": 3.92, "unit": "ns"}
    ]},
    {"smiles": "COc1ccccc1-c1nc(-c2ccccc2)c2ccccn12", "values": [
      {"measurement": "fluorescence lifetime", "setting": "in CC#N", "value": 7.5, "unit": "ns"}
    ]},
    {"smiles": "CCOC(=O)c1ccc2nc(/N=N/c3ccc(N(CC)CC)cc3)sc2c1", "values": [
      {"measurement": "fluorescence lifetime", "setting": "in CC#N", "value": 5.59, "unit": "ns"},
      {"measurement": "fluorescence lifetime", "setting": "in ClCCl", "value": 5.33, "unit": "ns"}
    ]},
    {"smiles": "CCCCN1C(=O)c2cc(Br)c3c4c(Br)cc5c6c(cc(Br)c(c7c(Br)cc(c2c37)C1=O)c64)C(=O)N(CCCC)C5=O", "values": [
      {"measurement": "fluorescence lifetime", "setting": "in ClC(Cl)Cl", "value": 2.9, "unit": "ns"}
    ]},
    {"smiles": "COC(=O)c1cc(=O)n(C)c2cc(-c3ccccc3OC)sc12", "values": [
      {"measurement": "fluorescence lifetime", "setting": "in ClCCl", "value": 1.31, "unit": "ns"}
    ]},
    {"smiles": "c1ccc(-c2nnc(-c3ccc(N4c5ccccc5Oc5ccccc54)cc3)o2)cc1", "values": [
      {"measurement": "fluorescence lifetime", "setting": "in Cc1ccccc1", "value": 11, "unit": "ns"},
      {"measurement": "fluorescence lifetime", "setting": "in c1ccc(-n2c(-c3c(-n4c5ccccc5c5ccccc54)cccc3-n3c4ccccc4c4ccccc43)nc3ccccc32)cc1", "value": 4.9, "unit": "ns"}
    ]},
    {"smiles": "CC(C)(C)OC(=O)NC(Cc1ccc2oc(-c3ccccn3)nc2c1)C(=O)O", "note": "(stereo not drawn)", "values": [
      {"measurement": "fluorescence lifetime", "setting": "in CC1CCCCC1", "value": 2.9, "unit": "ns"},
      {"measurement": "fluorescence lifetime", "setting": "in CC#N", "value": 1.92, "unit": "ns"},
      {"measurement": "fluorescence lifetime", "setting": "in CO", "value": 1.19, "unit": "ns"}
    ]}
  ]
}
